The target in assay [1] is SCD (stromelysin-1 catalytic domain) (Homo sapiens, UniProt P08254). Put plainly: Inhibition of stromelysin-1 catalytic domain (SCD), thiopeptolide substrate Ac-Pro-Leu-Gly-thioester-Leu-Leu-Gly-OEt. Format: biochemical. The procedure:
Experiments were carried out with the catalytic domains of the proteinases. […] IC50 values were determined using a thiopeptolide substrate, Ac-Pro-Leu-Gly-thioester-Leu-Leu-Gly-OEt (Ye Q.-Z., Johnson L. L., Hupe D. J., and Baragi V., "Purification and Characterization of the Human Stromelysin Catalytic Domain Expressed in Escherichia coli", Biochemistry, 1992;31:11231-11235).

Assay [2] addresses GCD (recombinant gelatinase A catalytic domain). Put plainly: Inhibition of recombinant gelatinase A catalytic domain (GCD), thiopeptolide substrate Ac-Pro-Leu-Gly-thioester-Leu-Leu-Gly-OEt. Format: biochemical. How it is done: Experiments were carried out with the catalytic domains of the proteinases.
For a further assay, the system named is pig articular cartilage. As to conditions: cited from earlier work.
The next assay has as its system bovine nasal cartilage. As to conditions: cited from earlier work.
Assay [3] has as its system experimental allergic encephalomyelitis (EAE). Particulars: dose dependent; cited from earlier work.
Assay [4] has as its system human ovarian carcinoma xenografts. As to conditions: mice bearing human ovarian carcinoma xenografts; cited from earlier work.

Where a name gives a salt, the structure may show the parent alone. Read-outs that look alike come from different tables or passages of the source.

Chain of SCD (stromelysin-1 catalytic domain) (P08254 100-272 limits assumed): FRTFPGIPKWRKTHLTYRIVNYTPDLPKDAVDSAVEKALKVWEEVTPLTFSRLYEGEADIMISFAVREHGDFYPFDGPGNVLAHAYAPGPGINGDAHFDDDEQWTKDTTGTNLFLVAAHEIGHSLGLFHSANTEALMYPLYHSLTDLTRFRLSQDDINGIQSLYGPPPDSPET

Take `O=C(O)CCC(=O)c1ccc(N2CCC(c3ccccc3)CC2)cc1` [potassium salt]: the IC50 in assay [1] was determined as 80 nM; in assay [2] (potassium salt), 560 nM.

Turning to `CC(CC(=O)O)CC(=O)c1ccc(N2CCC(c3ccccc3)CC2)cc1` (racemic) [Example 7, (±)3-Methyl-5-oxo-5-[4-(4-phenyl-piperidin-1-yl)-phenyl]-pentanoic acid], the IC50 came to 400 nM in assay [1] and 14000 nM in assay [2].

For `O=C(O)CCC(=O)c1ccc(N2CCC(c3ccccc3)CC2)cc1` [Example 1, 4-Oxo-4-[4-(4-phenyl-piperidin-1-yl)-phenyl]-butyric acid], the IC50 in assay [2] is 1300 nM.

As for `O=C(CCC(=O)c1ccc(N2CCC(c3ccccc3)CC2)cc1)NO` [Example 3, N-Hydroxy-4-oxo-4-[4-(4-phenyl-piperidin-1-yl)-phenyl]-butyramide], in assay [2], the half-maximal inhibitory concentration (IC50) was found to be 40 nM.

Turning to `O=C(O)CCC(=NOCc1ccccc1)c1ccc(N2CCC(c3ccccc3)CC2)cc1` [Example 5, E/Z-4-Benzyloxyimino-4-[4-(4-phenyl-piperidin-1-yl)-phenyl]-butyric acid], the values for the half-maximal inhibitory concentration (IC50) in assay [1] and in assay [2] were 2900 nM and 6300 nM, respectively.

On to “TIMP-1: natural endogenous inhibitors of MMPs (TIMPs)”, for which, in the assay with pig articular cartilage, the “formation of collagen fragments” value is “prevented the formation of collagen fragments” and the “formation of proteoglycan fragments” value is “not proteoglycan fragments”. In the assay on bovine nasal cartilage, the “formation of collagen fragments” value was “prevented the formation of collagen fragments” and the “formation of proteoglycan fragments” value was “not proteoglycan fragments”.

As to `CNC(=O)[C@H](Cc1c[nH]c2ccccc12)NC(=O)[C@@H](CC(=O)NO)CC(C)C` [GM6001], the “development or clinical expression of EAE” value in assay [3] was “suppressed the development or reversed the clinical expression”.

Take `O=C(O)CCC(=NO)c1ccc(N2CCC(c3ccccc3)CC2)cc1` [Example 4, E/Z-4-Hydroxyimino-4-[4-(4-phenyl-piperidin-1-yl)-phenyl]-butyric acid]: the concentration for half-maximal inhibition (IC50) is 20 nM in assay [1] and 150 nM in assay [2].

Turning to `O=C(O)CCC(=O)c1ccc(N2CCN(c3ccccc3)CC2)cc1` [Example 6, 4-Oxo-4-[4-(4-phenyl-piperazin-1-yl)-phenyl]-butyric acid], the half-maximal inhibitory concentration (IC50) in assay [2] came to 1600 nM.

`CNC(=O)[C@H](Cc1ccccc1)NC(=O)[C@H](CC(C)C)[C@H](CSc1cccs1)C(=O)NO` [BB-94]: in assay [4], the survival result is recorded as “prolonged the survival” and the tumor burden entry is recorded as “decreased the tumor burden”.
